According to the supplement of paper PMC8671470:

The compounds below were run on myeloid leukemia patient primary cells Pat.5 (assay: cell viability (% survival relative to DMSO control); higher = less cytotoxic). Details: 100 nM; 72 h.
Method in brief: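 Thawed mononuclear cells from AML or CML patients were purified on Ficoll and cultured for 72 h in RPMI 1640 with 10% FBS, at 10,000 cells/well, on 384-well plates carrying 70 pre-printed compounds at 1–10,000 nM in five tenfold steps, in duplicate. Viability came from CellTiter-Glo, normalised against DMSO and against 10 μM proteasome inhibitor. Any area under the curve given was derived from log-logistic curve fits in the drc and PharmacoGx R packages, and these fits had four parameters.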

Row | Structure (SMILES) | cell viability
1 | Nc1nc(Cl)nc2c1ncn2[C@H]1C[C@H](O)[C@@H](CO)O1 [Cladribine] | 9.01%
2 | O=C1c2cc([N+](=O)[O-])ccc2-n2c1nc1ccccc1c2=O [GNF-Pf-3777] | 73%
3 | C=C(C)[C@H]1Cc2c(ccc3c2O[C@@H]2COc4cc(OC)c(OC)cc4[C@@H]2C3=O)O1 [Rotenone] | 0.912%
4 | Oc1ccc(Nc2nc(-c3ccc(Cl)cc3)cs2)cc1 [SKI II] | 45.5%
5 | CCC(=O)N1CCN(c2ccc(-n3c(=O)ccc4cnc5ccc(-c6cnc7ccccc7c6)cc5c43)cc2C(F)(F)F)CC1 [Torin1] | 53.9%

Same assay, conditions: 1000 nM; 72 h

Row | Structure (SMILES) | cell viability
6 | O=C(C1CC1)N1CC[C@@H](C=C2NNC(=O)N2c2ccc(-c3ccc4occc4c3)cc2)C1 | 35.3%
7 | C[C@H](NC(=O)c1sccc1OCc1ccc(Cl)cc1)c1ccccc1 | 19.4%
8 | O=C(O)C1=CC(=C(c2ccc(O)c(C(=O)O)c2)c2ccc(O)c(C(=O)O)c2)C=CC1=O [Aurintricarboxylic acid] | > 100%
9 | COC(=O)[C@]12CCC(C)(C)C[C@H]1[C@H]1C(=O)C=C3[C@@]4(C)C=C(C#N)C(=O)C(C)(C)[C@@H]4CC[C@@]3(C)[C@]1(C)CC2 [Bardoxolone methyl] | 6.86%
10 | Cc1c(-c2ccc(-c3ccccc3F)cc2)nc2ccc(F)cc2c1C(=O)O [Brequinar] | 33.1%
11 | Nc1nc(Cl)nc2c1ncn2[C@H]1C[C@H](O)[C@@H](CO)O1 [Cladribine] | 0.265%
12 | O=C1c2cc([N+](=O)[O-])ccc2-n2c1nc1ccccc1c2=O [GNF-Pf-3777] | 36.1%
13 | C=C(C)[C@H]1Cc2c(ccc3c2O[C@@H]2COc4cc(OC)c(OC)cc4[C@@H]2C3=O)O1 [Rotenone] | 0.265%
14 | Oc1ccc(Nc2nc(-c3ccc(Cl)cc3)cs2)cc1 [SKI II] | 25%
15 | CCC(=O)N1CCN(c2ccc(-n3c(=O)ccc4cnc5ccc(-c6cnc7ccccc7c6)cc5c43)cc2C(F)(F)F)CC1 [Torin1] | 1.18%

Same assay, conditions: 10000 nM; 72 h

Row | Structure (SMILES) | cell viability
16 | O=C(C1CC1)N1CC[C@@H](C=C2NNC(=O)N2c2ccc(-c3ccc4occc4c3)cc2)C1 | 17.1%
17 | C[C@H](NC(=O)c1sccc1OCc1ccc(Cl)cc1)c1ccccc1 | 4.74%
18 | O=C(O)C1=CC(=C(c2ccc(O)c(C(=O)O)c2)c2ccc(O)c(C(=O)O)c2)C=CC1=O [Aurintricarboxylic acid] | > 100%
19 | COC(=O)[C@]12CCC(C)(C)C[C@H]1[C@H]1C(=O)C=C3[C@@]4(C)C=C(C#N)C(=O)C(C)(C)[C@@H]4CC[C@@]3(C)[C@]1(C)CC2 [Bardoxolone methyl] | 7.88%
20 | Cc1c(-c2ccc(-c3ccccc3F)cc2)nc2ccc(F)cc2c1C(=O)O [Brequinar] | 6.89%
21 | Nc1nc(Cl)nc2c1ncn2[C@H]1C[C@H](O)[C@@H](CO)O1 [Cladribine] | 1.33%
22 | O=C1c2cc([N+](=O)[O-])ccc2-n2c1nc1ccccc1c2=O [GNF-Pf-3777] | 3.37%
23 | C=C(C)[C@H]1Cc2c(ccc3c2O[C@@H]2COc4cc(OC)c(OC)cc4[C@@H]2C3=O)O1 [Rotenone] | 1.18%
24 | Oc1ccc(Nc2nc(-c3ccc(Cl)cc3)cs2)cc1 [SKI II] | 17%
25 | CCC(=O)N1CCN(c2ccc(-n3c(=O)ccc4cnc5ccc(-c6cnc7ccccc7c6)cc5c43)cc2C(F)(F)F)CC1 [Torin1] | 0.265%

The compounds below were run on MV4-11 (assay: cell viability (% survival relative to DMSO control, bortezomib = 0%); higher = less cytotoxic). Details: 1 nM; 72 h.
Method in brief: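 After 72 h at 37 °C with 5% CO2, cell viability in 384-well plates was measured by CellTiter-Glo luminescence. The plates held compounds pre-printed at 1, 10, 100, 1000 or 10000 nM in duplicate, and cells from 10 AML and 5 CML lines seeded at densities titrated to linear growth. Percent survival is the duplicate mean, normalised to vehicle as 100% and a 10 µM positive control as 0%.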

Row | Structure (SMILES) | cell viability
26 | O=C(C1CC1)N1CC[C@@H](C=C2NNC(=O)N2c2ccc(-c3ccc4occc4c3)cc2)C1 | 88.1%
27 | C[C@H](NC(=O)c1sccc1OCc1ccc(Cl)cc1)c1ccccc1 | 89.3%
28 | O=C(O)C1=CC(=C(c2ccc(O)c(C(=O)O)c2)c2ccc(O)c(C(=O)O)c2)C=CC1=O [Aurintricarboxylic acid] | 103%
29 | COC(=O)[C@]12CCC(C)(C)C[C@H]1[C@H]1C(=O)C=C3[C@@]4(C)C=C(C#N)C(=O)C(C)(C)[C@@H]4CC[C@@]3(C)[C@]1(C)CC2 [Bardoxolone methyl] | 113%
30 | Cc1c(-c2ccc(-c3ccccc3F)cc2)nc2ccc(F)cc2c1C(=O)O [Brequinar] | 106%
31 | Nc1nc(Cl)nc2c1ncn2[C@H]1C[C@H](O)[C@@H](CO)O1 [Cladribine] | 129%
32 | O=C1c2cc([N+](=O)[O-])ccc2-n2c1nc1ccccc1c2=O [GNF-Pf-3777] | 106%
33 | C=C(C)[C@H]1Cc2c(ccc3c2O[C@@H]2COc4cc(OC)c(OC)cc4[C@@H]2C3=O)O1 [Rotenone] | 97.2%
34 | Oc1ccc(Nc2nc(-c3ccc(Cl)cc3)cs2)cc1 [SKI II] | 97.2%
35 | Cc1cn([C@H]2C[C@H](O)[C@@H](COP(=O)(O)OP(=O)(O)O)O2)c(=O)[nH]c1=O [Thymidine diphosphate] | 95.7%
36 | CN(C)c1cc(NC(=O)CNC(C)(C)C)c(O)c2c1C[C@H]1C[C@H]3[C@H](N(C)C)C(=O)C(C(N)=O)C(=O)[C@@]3(O)C(=O)C1C2=O (stereo partly drawn) [Tigecycline] | 117%
37 | COc1ccc2c(C(=S)N(C)CC(=O)O)cccc2c1C(F)(F)F [Tolrestat] | 97.4%
38 | CCC(=O)N1CCN(c2ccc(-n3c(=O)ccc4cnc5ccc(-c6cnc7ccccc7c6)cc5c43)cc2C(F)(F)F)CC1 [Torin1] | 88.9%
39 | NC(=O)c1cccc(-c2cccc(OC(=O)NC3CCCCC3)c2)c1 [URB-597] | 96.4%
40 | O=C1O[C@H]([C@@H](O)CO)C(O)=C1O [Vitamin C (ascorbate)] | 102%

Same assay, conditions: 10 nM; 72 h

Row | Structure (SMILES) | cell viability
41 | O=C(C1CC1)N1CC[C@@H](C=C2NNC(=O)N2c2ccc(-c3ccc4occc4c3)cc2)C1 | 95.7%
42 | C[C@H](NC(=O)c1sccc1OCc1ccc(Cl)cc1)c1ccccc1 | 102%
43 | O=C(O)C1=CC(=C(c2ccc(O)c(C(=O)O)c2)c2ccc(O)c(C(=O)O)c2)C=CC1=O [Aurintricarboxylic acid] | 100%
44 | COC(=O)[C@]12CCC(C)(C)C[C@H]1[C@H]1C(=O)C=C3[C@@]4(C)C=C(C#N)C(=O)C(C)(C)[C@@H]4CC[C@@]3(C)[C@]1(C)CC2 [Bardoxolone methyl] | 111%
45 | Cc1c(-c2ccc(-c3ccccc3F)cc2)nc2ccc(F)cc2c1C(=O)O [Brequinar] | 100%
46 | Nc1nc(Cl)nc2c1ncn2[C@H]1C[C@H](O)[C@@H](CO)O1 [Cladribine] | 81%
47 | O=C1c2cc([N+](=O)[O-])ccc2-n2c1nc1ccccc1c2=O [GNF-Pf-3777] | 101%
48 | C=C(C)[C@H]1Cc2c(ccc3c2O[C@@H]2COc4cc(OC)c(OC)cc4[C@@H]2C3=O)O1 [Rotenone] | 70%
